Assay results from PubChem BioAssay AID248 (DTP/NCI, 2004).
Toxic doses and inconclusive results are not listed. Cut-off read from the data, not from the text of the source: active = T/C of 150% or more; inactive = T/C below 125%.

System: L1210 leukemia ip in BDF1 mice, survival T/C
Experiment: NCI In Vivo Anticancer Drug Screen. Data for tumor model L1210 Leukemia (intraperitoneal) in B6D2F1 (BDF1) mice
Conditions: endpoint: mean survival time, higher = longer survival
In short: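 Tumor was transplanted into mice, which were then dosed with test compound or vehicle alone. Survival was recorded for each group, and the treated figure was expressed relative to the control figure.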

[1] = dose: 64.0 mg/kg/injection, schedule: Q04DX002 (ip), vehicle: saline with Tween-80
[2] = dose: 160.0 mg/kg/injection, schedule: Q04DX002 (ip), vehicle: saline with Tween-80
[3] = dose: 400.0 mg/kg/injection, schedule: Q04DX002 (ip), vehicle: saline with Tween-80
[4] = dose: 100.0 mg/kg/injection, schedule: Q04DX002 (ip), vehicle: Klucel (hydroxypropylcellulose) (HPC)
[5] = dose: 200.0 mg/kg/injection, schedule: Q04DX002 (ip), vehicle: Klucel (hydroxypropylcellulose) (HPC)
[6] = dose: 100.0 mg/kg/injection, schedule: Q04DX003 (ip), vehicle: Klucel (hydroxypropylcellulose) (HPC)
[7] = dose: 200.0 mg/kg/injection, schedule: Q04DX003 (ip), vehicle: Klucel (hydroxypropylcellulose) (HPC)
[8] = dose: 400.0 mg/kg/injection, schedule: Q04DX003 (ip), vehicle: Klucel (hydroxypropylcellulose) (HPC)
[9] = dose: 100.0 mg/kg/injection, schedule: Q04DX002 (ip), vehicle: saline
[10] = dose: 200.0 mg/kg/injection, schedule: Q04DX002 (ip), vehicle: saline
[11] = dose: 400.0 mg/kg/injection, schedule: Q04DX002 (ip), vehicle: saline
[12] = dose: 50.0 mg/kg/injection, schedule: Q01DX009 (ip), vehicle: saline with Tween-80
[13] = dose: 100.0 mg/kg/injection, schedule: Q01DX009 (ip), vehicle: saline with Tween-80
[14] = dose: 200.0 mg/kg/injection, schedule: Q01DX009 (ip), vehicle: saline with Tween-80
[15] = dose: 100.0 mg/kg/injection, schedule: Q01DX009 (ip), vehicle: Klucel (hydroxypropylcellulose) (HPC)
[16] = dose: 200.0 mg/kg/injection, schedule: Q01DX009 (ip), vehicle: Klucel (hydroxypropylcellulose) (HPC)
[17] = dose: 400.0 mg/kg/injection, schedule: Q01DX009 (ip), vehicle: Klucel (hydroxypropylcellulose) (HPC)
[18] = dose: 100.0 mg/kg/injection, schedule: Q01DX001 (ip), vehicle: saline
[19] = dose: 200.0 mg/kg/injection, schedule: Q01DX001 (ip), vehicle: saline
[20] = dose: 400.0 mg/kg/injection, schedule: Q01DX001 (ip), vehicle: saline
[21] = dose: 100.0 mg/kg/injection, schedule: Q04DX003 (ip), vehicle: saline with Tween-80
[22] = dose: 200.0 mg/kg/injection, schedule: Q04DX003 (ip), vehicle: saline with Tween-80
[23] = dose: 400.0 mg/kg/injection, schedule: Q01DX009 (ip), vehicle: saline with Tween-80
[24] = dose: 400.0 mg/kg/injection, schedule: Q04DX003 (ip), vehicle: saline with Tween-80

Measured: T/C

C[Si](C)(C)Cc1cccc(F)c1
inactive: dose: 25.6 mg/kg/injection, schedule: Q04DX002 (ip), vehicle: saline with Tween-80 93 % of control | [1] 90 % of control | [2] 87 % of control | [3] 97 % of control

CC(C)OC(=O)Nc1ccc(Br)cc1
inactive: [4] 88 % of control | [5] 95 % of control

O=C(O)/C=C/c1ccc(Cl)cc1
inactive: dose: 100.0 mg/kg/injection, schedule: Q04DX002 (ip), vehicle: gum acacia 107 % of control | dose: 200.0 mg/kg/injection, schedule: Q04DX002 (ip), vehicle: gum acacia 95 % of control | dose: 400.0 mg/kg/injection, schedule: Q04DX002 (ip), vehicle: gum acacia 107 % of control

CC1=CC(=O)CC(C)C2CC(=C(C)C)CC12 (stereo unspecified)
inactive: [6] 100 % of control | [7] 108 % of control | [8] 100 % of control

CCOP(=O)(OCC)C(=O)C1C(C=C(C)C)C1(C)C (stereo unspecified)
inactive: [9] 123 % of control | [10] 104 % of control | [11] 115 % of control

O=C(CSc1cc(Cl)c(Cl)cc1Cl)Nc1ccccc1Br
inactive: [12] 94 % of control | [13] 97 % of control | [14] 87 % of control

O=C(COc1ccccc1)Nc1ccc(Br)cc1
inactive: [4] 103 % of control | [5] 103 % of control | dose: 400.0 mg/kg/injection, schedule: Q04DX002 (ip), vehicle: Klucel (hydroxypropylcellulose) (HPC) 95 % of control

Cc1ccc(NC(=O)OC(C)C)c(C)c1
inactive: [15] 100 % of control | [16] 100 % of control | [17] 96 % of control

OC(c1ccccc1)c1ccccc1 (tested in a mixture with another compound)
inactive: dose: 2.5 mg/kg/injection, schedule: Q01DX009 (ip), vehicle: acetone 107 % of control | dose: 5.0 mg/kg/injection, schedule: Q01DX009 (ip), vehicle: acetone 105 % of control | dose: 10.0 mg/kg/injection, schedule: Q01DX001 (ip), vehicle: saline 93 % of control | dose: 10.0 mg/kg/injection, schedule: Q01DX009 (ip), vehicle: acetone 98 % of control | dose: 20.0 mg/kg/injection, schedule: Q01DX001 (ip), vehicle: saline 88 % of control

CSCCC(O)C(=O)O (stereo unspecified)
inactive: [18] 101 % of control | [19] 95 % of control | [20] 101 % of control

CCC(/C=N/NC(N)=O)CC
inactive: [6] 101 % of control | [7] 93 % of control | [8] 96 % of control

CCN(CC)C(=O)C1CC=CCC1 (stereo unspecified)
inactive: [9] 96 % of control | [10] 107 % of control | [11] 93 % of control

Clc1cc(Cl)c(C[N+]23CN4CN(CN(C4)C2)C3)cc1Cl
inactive: dose: 12.5 mg/kg/injection, schedule: Q01DX009 (ip), vehicle: saline with Tween-80 102 % of control | dose: 25.0 mg/kg/injection, schedule: Q01DX009 (ip), vehicle: saline with Tween-80 104 % of control | [12] 102 % of control | [13] 120 % of control | [14] 121 % of control

CCC1COC(=S)N1 (stereo unspecified)
inactive: dose: 6.25 mg/kg/injection, schedule: Q01DX001 (ip), vehicle: Klucel (hydroxypropylcellulose) (HPC) 93 % of control | dose: 6.25 mg/kg/injection, schedule: Q01DX009 (ip), vehicle: saline 91 % of control | dose: 12.5 mg/kg/injection, schedule: Q01DX001 (ip), vehicle: Klucel (hydroxypropylcellulose) (HPC) 108 % of control | dose: 12.5 mg/kg/injection, schedule: Q01DX009 (ip), vehicle: saline 105 % of control | dose: 25.0 mg/kg/injection, schedule: Q01DX001 (ip), vehicle: Klucel (hydroxypropylcellulose) (HPC) 100 % of control | dose: 25.0 mg/kg/injection, schedule: Q04DX002 (ip), vehicle: saline with Tween-80 103 % of control

CN(C)c1ccc(/C=N\NC(=O)CCCC(=O)N/N=C/c2ccc(N(C)C)cc2Cl)c(Cl)c1
inactive: dose: 50.0 mg/kg/injection, schedule: Q01DX001 (ip), vehicle: saline 98 % of control | [18] 98 % of control | [19] 102 % of control | [20] 102 % of control

NC(=O)c1cccn1-c1ccc2ncccc2c1
inactive: dose: 25.0 mg/kg/injection, schedule: Q04DX002 (ip), vehicle: Klucel (hydroxypropylcellulose) (HPC) 89 % of control | dose: 50.0 mg/kg/injection, schedule: Q04DX002 (ip), vehicle: Klucel (hydroxypropylcellulose) (HPC) 92 % of control | [4] 86 % of control

CN(C)C(=O)C1CCC1
inactive: [13] 91 % of control | [21] 103 % of control | [14] 105 % of control | [22] 101 % of control | [23] 100 % of control | [24] 104 % of control

C=CCC1(O)C(c2ccccc2)=C(c2ccccc2)C(c2ccccc2)=C1c1ccccc1
inactive: dose: 50.0 mg/kg/injection, schedule: Q01DX001 (ip), vehicle: other 98 % of control | dose: 100.0 mg/kg/injection, schedule: Q01DX001 (ip), vehicle: other 96 % of control | dose: 200.0 mg/kg/injection, schedule: Q01DX001 (ip), vehicle: other 98 % of control | dose: 400.0 mg/kg/injection, schedule: Q01DX001 (ip), vehicle: other 98 % of control

COc1ccccc1/C(=C/c1ccc([N+](=O)[O-])cc1)C(=O)Nc1ccc(S(=O)(=O)F)cc1
inactive: [15] 103 % of control | [16] 92 % of control | [17] 100 % of control

CC(C)COC(=O)c1ccc(NC(=S)Nc2ccccc2)cc1
inactive: [15] 93 % of control | [16] 93 % of control

CCCCNc1c(NCCCC)c(=O)c1=O
inactive: [6] 90 % of control | [7] 90 % of control | [8] 91 % of control

COC1=CCC(OC)=C(C)C1
inactive: dose: 150.0 mg/kg/injection, schedule: Q01DX009 (ip), vehicle: saline 95 % of control | dose: 225.0 mg/kg/injection, schedule: Q01DX009 (ip), vehicle: saline 94 % of control

CCC(=O)OCC(C)([N+](=O)[O-])[N+](=O)[O-]
inactive: [13] 106 % of control | [21] 97 % of control | [14] 97 % of control | [22] 97 % of control | [23] 101 % of control | [24] 109 % of control

CC(CC#N)OC(=O)c1cccc([N+](=O)[O-])c1 (stereo unspecified)
inactive: [15] 91 % of control | [6] 115 % of control | [16] 93 % of control | [7] 93 % of control | [17] 98 % of control | [8] 105 % of control

COc1cccc(N=CC(=O)c2ccc(C)cc2)c1
inactive: dose: 75.0 mg/kg/injection, schedule: Q04DX003 (ip), vehicle: Klucel (hydroxypropylcellulose) (HPC) 95 % of control | dose: 150.0 mg/kg/injection, schedule: Q04DX003 (ip), vehicle: Klucel (hydroxypropylcellulose) (HPC) 89 % of control

CCN=C1N[N+]2=CCCCC2S1 (stereo unspecified)
inactive: dose: 50.0 mg/kg/injection, schedule: Q04DX003 (ip), vehicle: saline 103 % of control | dose: 100.0 mg/kg/injection, schedule: Q04DX003 (ip), vehicle: saline 109 % of control

c1cc[c]([Sn]([c]2ccccc2)[c]2ccccc2)cc1.c1ccc([Si](c2ccccc2)c2ccccc2)cc1
inactive: [1] 86 % of control | [2] 86 % of control | [3] 86 % of control

CCCCOC(=O)c1ccc(NC(=O)Nc2cccc(F)c2)cc1
inactive: [13] 95 % of control

CCCCCCCCCC(C)Cc1ccccc1 (stereo unspecified)
inactive: dose: 100.0 mg/kg/injection, schedule: Q01DX001 (ip), vehicle: saline with Tween-80 100 % of control | dose: 200.0 mg/kg/injection, schedule: Q01DX001 (ip), vehicle: saline with Tween-80 100 % of control | dose: 400.0 mg/kg/injection, schedule: Q01DX001 (ip), vehicle: saline with Tween-80 92 % of control

O=C(NCCCCCCCCCNC(=O)Nc1ccc(C2=NCCN2)cc1)Nc1ccc(C2=NCCN2)cc1
inactive: dose: 62.0 mg/kg/injection, schedule: Q01DX Z (ip), vehicle: carboxymethylcellulose (CMC) 102 % of control | dose: 125.0 mg/kg/injection, schedule: Q01DX Z (ip), vehicle: carboxymethylcellulose (CMC) 100 % of control
